ChEMBL document CHEMBL1201862, “PubChem BioAssay data set” (2004)
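Five compound concentrations were applied to cells in 96-well plates for 48 hours; endpoints were derived by simple linear interpolation of the resulting dose-response curve. GI50: concentration for 50% inhibition of growth.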 Calls of active or inactive are those of the source. No stated cut-off is given here; in the data, active = GI50 up to about 1.1 µM and inactive = higher.

Tests used:
Assay in all cases: inhibition of tumour cell growth, NCI panel, 48 h
CAKI-1 = system: CAKI-1
EKVX = system: EKVX
UO-31 = system: UO-31
NCI-H226 = system: NCI-H226
LOX IMVI = system: LOX IMVI
OVCAR-5 = system: OVCAR-5
UACC-257 = system: UACC-257
HT-29 = system: HT-29
HCT-15 = system: HCT-15
OVCAR-4 = system: OVCAR-4
SN12C = system: SN12C
NCI-H522 = system: NCI-H522
SK-OV-3 = system: SK-OV-3
OVCAR-3 = system: OVCAR-3
K562 = system: K562
SF-539 = system: SF-539
786-0 = system: 786-0
Malme-3M = system: Malme-3M
SNB-19 = system: SNB-19
HL-60 = system: HL-60

Compound | GI50 (CAKI-1) | GI50 (EKVX) | GI50 (UO-31) | GI50 (NCI-H226) | GI50 (LOX IMVI) | GI50 (OVCAR-5) | GI50 (UACC-257) | GI50 (HT-29) | GI50 (HCT-15) [µM] | GI50 (OVCAR-4) | GI50 (SN12C) | GI50 (NCI-H522) | GI50 (SK-OV-3) | GI50 (OVCAR-3) | GI50 (K562) | GI50 (SF-539) | GI50 (786-0) | GI50 (Malme-3M) | GI50 (SNB-19) | GI50 (HL-60)
CCCCc1c2cnccc2c(CCCC)c2c1[nH]c1ccccc12 | 5.9 µM (inactive) | 14.6 µM (inactive) | 10.4 µM (inactive) | 15.7 µM (inactive) | 13.7 µM (inactive) | 44.9 µM (inactive) | 15.1 µM (inactive) | 9.91 µM (inactive) | 6.84 | 8.99 µM (inactive) | 18 µM (inactive) | 12.4 µM (inactive) | 27.4 µM (inactive) | 5.26 µM (inactive) | 3.54 µM (inactive) | 3.42 µM (inactive) | 10 µM (inactive) | 11.9 µM (inactive) | 7.19 µM (inactive) | –
CC(C)C(=O)/C=C/c1ccc(Br)cc1 | – | 24 µM (inactive) | 16.4 µM (inactive) | – | 17.3 µM (inactive) | 14.4 µM (inactive) | 16.5 µM (inactive) | 14.7 µM (inactive) | – | 25.4 µM (inactive) | 14.1 µM (inactive) | 12.2 µM (inactive) | 22.3 µM (inactive) | 14.2 µM (inactive) | 3.94 µM (inactive) | 21.1 µM (inactive) | 11.2 µM (inactive) | – | 16 µM (inactive) | 10.8 µM (inactive)
CC(=O)[C@@]1(c2ccccc2)CC2(CCN(C)CC2)O[C@H]1C | > 100 µM (inactive) | > 100 µM (inactive) | > 100 µM (inactive) | > 100 µM (inactive) | > 100 µM (inactive) | > 100 µM (inactive) | > 100 µM (inactive) | > 100 µM (inactive) | > 100 | > 100 µM (inactive) | > 100 µM (inactive) | > 100 µM (inactive) | > 100 µM (inactive) | > 100 µM (inactive) | > 100 µM (inactive) | > 100 µM (inactive) | > 100 µM (inactive) | > 100 µM (inactive) | > 100 µM (inactive) | –
CC(C(=O)NCCNC(=O)CCC(=O)N(C)O)C(=O)NCCNC(=O)CCC(=O)N(C)O | > 100 µM (inactive) | > 100 µM (inactive) | > 100 µM (inactive) | > 100 µM (inactive) | > 100 µM (inactive) | > 100 µM (inactive) | > 100 µM (inactive) | > 100 µM (inactive) | > 100 | > 100 µM (inactive) | – | > 100 µM (inactive) | > 100 µM (inactive) | > 100 µM (inactive) | > 100 µM (inactive) | – | – | > 100 µM (inactive) | > 100 µM (inactive) | > 100 µM (inactive)
C=C1C(=O)O[C@@H]2C[C@@]3(C)[C@H](O)CCC(=C)[C@@H]3C[C@H]12 [ASPERILIN] | 5.58 µM (inactive) | 16.1 µM (inactive) | 10.8 µM (inactive) | 4.29 µM (inactive) | 5.27 µM (inactive) | 6.12 µM (inactive) | – | 3.6 µM (inactive) | 11.3 | 11.8 µM (inactive) | 5.94 µM (inactive) | 4.16 µM (inactive) | 22.3 µM (inactive) | 8.15 µM (inactive) | 2.39 µM (inactive) | 11 µM (inactive) | 9.66 µM (inactive) | 3.11 µM (inactive) | 18.7 µM (inactive) | –
COc1cc(C)cc(OC)c1/C=C/C(=O)O | > 100 µM (inactive) | > 100 µM (inactive) | > 100 µM (inactive) | > 100 µM (inactive) | > 100 µM (inactive) | > 100 µM (inactive) | > 100 µM (inactive) | > 100 µM (inactive) | > 100 | > 100 µM (inactive) | > 100 µM (inactive) | > 100 µM (inactive) | – | 21.5 µM (inactive) | > 100 µM (inactive) | – | > 100 µM (inactive) | > 100 µM (inactive) | > 100 µM (inactive) | > 100 µM (inactive)
CC(C)Oc1cccc(N2C(n3ccnc3)=Nc3ccncc3S2(=O)=O)c1 | 13.7 µM (inactive) | 16.2 µM (inactive) | 21.6 µM (inactive) | 21.7 µM (inactive) | 16.2 µM (inactive) | 13.8 µM (inactive) | 16.4 µM (inactive) | 15.9 µM (inactive) | 13.6 | 14 µM (inactive) | 15.5 µM (inactive) | 9.44 µM (inactive) | 17.5 µM (inactive) | 9.35 µM (inactive) | 10.2 µM (inactive) | 6.31 µM (inactive) | 10.4 µM (inactive) | 13.5 µM (inactive) | 20.5 µM (inactive) | –
CNc1ccc2c(c1)[C@@]1(C)c3ccccc3[C@@H](C2)N1C | 36.5 µM (inactive) | 32.7 µM (inactive) | 28.1 µM (inactive) | – | 19.5 µM (inactive) | 25.9 µM (inactive) | 23.4 µM (inactive) | 18.8 µM (inactive) | 19 | 30.7 µM (inactive) | 17.4 µM (inactive) | 15.7 µM (inactive) | 43.8 µM (inactive) | 20.1 µM (inactive) | 23.2 µM (inactive) | – | 17.4 µM (inactive) | 28 µM (inactive) | 37.8 µM (inactive) | 14.7 µM (inactive)
CSc1nc2nc(C)c(C)nc2c(=O)[nH]1 | > 100 µM (inactive) | > 100 µM (inactive) | > 100 µM (inactive) | – | > 100 µM (inactive) | > 100 µM (inactive) | > 100 µM (inactive) | > 100 µM (inactive) | > 100 | > 100 µM (inactive) | > 100 µM (inactive) | > 100 µM (inactive) | > 100 µM (inactive) | > 100 µM (inactive) | > 100 µM (inactive) | – | > 100 µM (inactive) | > 100 µM (inactive) | > 100 µM (inactive) | > 100 µM (inactive)
CN(C)Cc1cc(/N=N/c2ccc(Cl)cc2)ccc1OC(=O)c1ccccc1 | – | 12.1 µM (inactive) | 12.6 µM (inactive) | 21.9 µM (inactive) | 12.4 µM (inactive) | 16.8 µM (inactive) | 19.2 µM (inactive) | 14.4 µM (inactive) | 12.9 | 14.1 µM (inactive) | 14.6 µM (inactive) | 12.2 µM (inactive) | – | 15.7 µM (inactive) | 14.4 µM (inactive) | 18.2 µM (inactive) | 14.7 µM (inactive) | 16.7 µM (inactive) | 15 µM (inactive) | 13.5 µM (inactive)
C=C1COC(/C=C(\C)CC/C=C(\C)CCl)C1 (stereo not given) | – | > 100 µM (inactive) | > 100 µM (inactive) | > 100 µM (inactive) | > 100 µM (inactive) | > 100 µM (inactive) | – | > 100 µM (inactive) | > 100 | > 100 µM (inactive) | > 100 µM (inactive) | > 100 µM (inactive) | > 100 µM (inactive) | > 100 µM (inactive) | > 100 µM (inactive) | > 100 µM (inactive) | > 100 µM (inactive) | – | > 100 µM (inactive) | > 100 µM (inactive)
COc1ccc2c(c1)OCCC1=C2SCC2(C)CCN=C12 (stereo not given) | – | – | – | 35.6 µM (inactive) | > 100 µM (inactive) | – | – | 55.2 µM (inactive) | – | > 100 µM (inactive) | > 100 µM (inactive) | > 100 µM (inactive) | > 100 µM (inactive) | 72.6 µM (inactive) | 46.2 µM (inactive) | > 100 µM (inactive) | > 100 µM (inactive) | – | > 100 µM (inactive) | 29 µM (inactive)
